Source: patent US20120059162A1, “FUSED IMIDAZOLE DERIVATIVE HAVING TTK INHIBITORY ACTION” (Oncotherapy Science, Inc., priority 2009, published 2012)
Read-outs that look alike come from different tables or passages of the source.

Key:
A549 = A549 assay: screening of cancer cell growth inhibiting compound; type: cell-based; conditions: Homo sapiens, A549 cells, read-out: A549 IC50
Outline: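 A549 cells (1×10^4/ml) in D-MEM with 10% FBS were pre-incubated one day at 37 °C, then exposed to compound dilutions for three further days. Viable cell number read by WST-8 (1–4 hours), absorbance 450 nm (reference 620 nm); inhibition calculated relative to untreated wells.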

TTK = biological target: T1, TTK (Homo sapiens, UniProt P33981); assay: TTK assay: screening of TTK kinase activity suppressing action using p38 MAPK peptide; type: biochemical; conditions: read-out: TTK IC50
T1 sequence (P33981 1-857): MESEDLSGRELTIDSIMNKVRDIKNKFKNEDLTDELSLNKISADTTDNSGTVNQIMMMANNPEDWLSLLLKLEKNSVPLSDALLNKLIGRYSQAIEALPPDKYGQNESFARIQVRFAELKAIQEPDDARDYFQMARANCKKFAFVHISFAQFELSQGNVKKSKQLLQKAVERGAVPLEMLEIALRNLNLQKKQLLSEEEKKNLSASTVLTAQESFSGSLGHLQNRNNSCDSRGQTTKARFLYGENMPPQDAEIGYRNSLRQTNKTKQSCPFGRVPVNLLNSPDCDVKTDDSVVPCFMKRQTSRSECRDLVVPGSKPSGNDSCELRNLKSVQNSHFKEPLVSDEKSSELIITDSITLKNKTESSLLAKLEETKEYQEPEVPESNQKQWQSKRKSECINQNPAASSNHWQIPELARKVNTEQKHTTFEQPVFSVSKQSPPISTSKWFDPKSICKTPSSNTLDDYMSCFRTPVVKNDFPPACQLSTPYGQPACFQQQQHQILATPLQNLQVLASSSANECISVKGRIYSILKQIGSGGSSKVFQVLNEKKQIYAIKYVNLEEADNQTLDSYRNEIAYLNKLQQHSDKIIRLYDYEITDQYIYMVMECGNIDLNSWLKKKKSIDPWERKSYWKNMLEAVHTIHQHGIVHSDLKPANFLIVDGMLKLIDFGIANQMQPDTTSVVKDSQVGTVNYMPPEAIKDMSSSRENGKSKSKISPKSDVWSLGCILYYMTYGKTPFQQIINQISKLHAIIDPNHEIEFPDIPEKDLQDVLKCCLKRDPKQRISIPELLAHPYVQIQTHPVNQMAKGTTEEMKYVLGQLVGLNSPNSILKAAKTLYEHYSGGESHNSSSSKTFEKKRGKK
Outline: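 TTK (4 μg/ml in enzyme solution) mixed with p38 MAPK peptide and ATP (each 60 μM in substrate solution) in Tris-HCl pH 7.5 with MgCl2, DTT, Na3VO4, β-glycerophosphate, BSA. Reaction aliquot captured on NeutrAvidin plate, detected with Eu-labelled anti-mouse IgG by time-resolved fluorescence; inhibition relative to no-compound signal.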

Row | Compound | IC50 (A549; 72 h, three days, WST-8) [nM] | IC50 (TTK; p38 MAPK peptide substrate) [nM] | IC50 (A549; values given as IC50 intervals) [nM] | IC50 (TTK) [nM]
1 | N#Cc1ccc(-c2cc(NCC3CCOCC3)c3ncc(-c4ccc(C(=O)NC5CC5)cc4)n3n2)c(Cl)c1 [Example 2-206] |  |  | 50 to 500 | 2.8
2 | CC(C)Oc1cc(NCC2CCOCC2)c2ncc(-c3ccc(C(=O)NC4CC4)cc3)n2n1 [Example 2-178] |  |  | 50 to 500 | 7.1
3 | O=C(NC1CC1)c1ccc(-c2cnc3c(NCC4(O)CCOCC4)cc(NC4CCCCC4)nn23)cc1 [Example 2-169] |  |  | 50 to 500 | 7.2
4 | COc1cc(NCC2CCOCC2)c2ncc(-c3ccc(C(=O)NC4CC4)cc3)n2n1 [Example 2-172] |  |  | 500 to 1000 | 20.3
5 | NC1CCCCC1Oc1cc(NCC2CCOCC2)c2ncc(-c3ccc(C(=O)NC4CC4)cc3)n2n1 (stereo not shown) [Example 2-189] |  |  | 500 to 1000 | 8.6
6 | O=C(NC1CC1)c1ccc(-c2cnc3c(NCC4CCS(=O)(=O)CC4)cc(NC4CCCCC4)nn23)cc1 [Example 2-146] | 500 to 1000 | 3.8 |  | 
7 | COc1cc(C#N)ccc1-c1cc(NCC2CCOCC2)c2ncc(-c3ccc(C(=O)NC4CC4)cc3)n2n1 [Example 2-205] |  |  | ≤ 50 | 4.5
8 | N#Cc1ccc(-c2cn3c(-c4ccc(C(=O)NC5CC5)cc4)cnc3c(NCCOCCOCCO)n2)cc1 [Example 1-237] | 1000 to 10000 | 39.9 |  | 
9 | O=C(NC1CC1)c1ccc(-c2cnc3c(NCC4CCOCC4)cc(NC(=O)C4CCCCC4)nn23)cc1 [Example 2-36] | 1000 to 10000 | 44.2 |  | 
10 | O=C(NC1CC1)c1ccc(-c2cnc3c(NCC45CCN(CC4)CC5)cc(NC4CCCCC4)nn23)cc1 [Example 2-153] | 50 to 500 | 7.5 |  | 
11 | N#Cc1ccc(-c2cn3c(-c4ccc(C(=O)NC5CC5)cc4)cnc3c(NCCc3ccc(O)cc3)n2)cc1 [Example 1-228] | 500 to 1000 | 20.5 |  | 
12 | N#Cc1ccc(-c2cn3c(-c4ccc(C(=O)NC5CC5)cc4)cnc3c(NCCc3cccc(O)c3)n2)cc1 [Example 1-226] | 500 to 1000 | 17.1 |  | 
13 | COCCOc1cc(NCC2CCOCC2)c2ncc(-c3ccc(C(=O)NC4CC4)cc3)n2n1 [Example 2-175] |  |  | 50 to 500 | 11.4
14 | CCC(C)Nc1cc(NC2CCCCC2)nn2c(-c3ccc(C(=O)NC4CC4)cc3)cnc12 (stereo not shown) [Example 2-143] | 500 to 1000 | 19.8 |  | 
15 | O=C(NC1CC1)c1ccc(-c2cnc3c(NCC4CCOCC4)cc(NC4CCCC4)nn23)c(F)c1 [Example 2-227] |  |  | 50 to 500 | 3.5
16 | NC(=O)c1ccc(-c2cc(NCC3CCOCC3)c3ncc(-c4ccc(C(=O)NC5CC5)cc4)n3n2)cc1 [Example 2-4, 4-(6-(4-Carbamoylphenyl)-8-((tetrahydro-2H-pyran-4-yl)methylamino)imidazo[1,2-b]pyridazin-3-yl)-N-cyclopropylbenzamide] | 1000 to 10000 | 4.5 |  | 
17 | CC1(Oc2cc(NCC3CCOCC3)c3ncc(-c4ccc(C(=O)NC5CC5)cc4)n3n2)CCCCC1 [Example 2-171, N-Cyclopropyl-4-(6-(1-methylcyclohexyloxy)-8-((tetrahydro-2H-pyran-4-yl)methylamino)imidazo[1,2-b]pyridazin-3-yl)benzamide] |  |  | 50 to 500 | 3.5
18 | O=C(NC1CC1)c1ccc(-c2cnc3c(NCC4CCOCC4)cc(NC4CCC(F)(F)CC4)nn23)cc1 [Example 2-67] | 50 to 500 | 3.7 |  | 
19 | N#Cc1ccc(-c2cn3c(-c4ccc(C(=O)NC5CC5)cc4)cnc3c(NCC3CC3)n2)cc1 [Example 1-219] | 50 to 500 | 9.5 |  | 
20 | O=C(NC1CC1)c1ccc(-c2cnc3c(NCC4CCOCC4)cc(CC4CCCCC4)nn23)cc1 [Example 2-208] |  |  | 50 to 500 | 7.1
21 | O=C(NC1CC1)c1ccc(-c2cnc3c(NCC4CCOCC4)cc(OC4CCNCC4)nn23)cc1 [Example 2-180] |  |  | 1000 to 10000 | 12.2
22 | O=C(NC1CC1)c1ccc(-c2cnc3c(NCC4CCOCC4)cc(N[C@H]4CC[C@H](O)CC4)nn23)cc1 [Example 2-43] | 500 to 1000 | 12.5 |  | 
23 | CC(C)(C)Oc1cc(NCC2CCOCC2)c2ncc(-c3ccc(C(=O)NC4CC4)cc3)n2n1 [Example 2-182] |  |  | 50 to 500 | 8.4
24 | CC(CO)CNc1cc(NC2CCCCC2)nn2c(-c3ccc(C(=O)NC4CC4)cc3)cnc12 (stereo not shown) [Example 2-168] |  |  | 50 to 500 | 3.3
25 | CC(=O)N1CCC(CNc2cc(NC3CCCCC3)nn3c(-c4ccc(C(=O)NC5CC5)cc4)cnc23)CC1 [Example 2-127] | 50 to 500 | 5 |  | 

The remaining lines, values ahead:

Row | IC50 (A549; 72 h, three days, WST-8) [nM] | IC50 (TTK; p38 MAPK peptide substrate) [nM] | IC50 (A549; values given as IC50 intervals) [nM] | IC50 (TTK) [nM] | Compound
26 | ≤ 50 | 2.2 |  |  | O=C(NC1CC1)c1ccc(-c2cnc3c(NCC4CCOCC4)cc(Oc4cc(F)ccc4O)nn23)cc1 [Example 2-118]
27 | ≤ 50 | 5.1 |  |  | CC(Nc1cc(NCC2CCOCC2)c2ncc(-c3ccc(C(=O)NC4CC4)cc3)n2n1)C(F)(F)F (stereo not shown) [Example 2-61]
28 | 50 to 500 | 22 |  |  | O=C(NC1CC1)c1ccc(-c2cnc3c(NCC4CCOCC4)cc(N4CCCC4=O)nn23)cc1 [Example 2-39]
29 | 50 to 500 | 8.7 |  |  | O=C(NC1CC1)c1ccc(-c2cnc3c(NCC4CCOCC4)cc(N4CCCC4CO)nn23)cc1 (stereo not shown) [Example 2-62]
30 | 50 to 500 | 6.6 |  |  | O=C(NC1CC1)c1ccc(-c2cnc3c(NCc4ccc(F)cc4)cc(NC4CCCCC4)nn23)cc1 [Example 2-134]
31 | 50 to 500 | 5.5 |  |  | CCCC(C)Nc1cc(NCC2CCOCC2)c2ncc(-c3ccc(C(=O)NC4CC4)cc3)n2n1 (stereo not shown) [Example 2-58]
32 | ≤ 50 | 3.5 |  |  | CC(C)C(Nc1cc(NCC2CCOCC2)c2ncc(-c3ccc(C(=O)NC4CC4)cc3)n2n1)C(F)(F)F (stereo not shown) [Example 2-78]
33 | 50 to 500 | 19.6 |  |  | N#Cc1ccc(-c2cn3c(-c4ccc(C(=O)NC5CC5)cc4)cnc3c(NCc3nccs3)n2)cc1 [Example 1-220]
34 | 50 to 500 | 5.5 |  |  | CC(C)N(C)c1cc(NCC2CCOCC2)c2ncc(-c3ccc(C(=O)NC4CC4)cc3)n2n1 [Example 2-24]
35 | ≤ 50 | 6 |  |  | CC(C)C(C)(C)Nc1cc(NCC2CCOCC2)c2ncc(-c3ccc(C(=O)NC4CC4)cc3)n2n1 [Example 2-82]
36 | ≤ 50 | 3.1 |  |  | CN(c1cc(NCC2CCOCC2)c2ncc(-c3ccc(C(=O)NC4CC4)cc3)n2n1)C1CCCCC1 [Example 2-17]
37 | 50 to 500 | 11.9 |  |  | O=C(NC1CC1)c1ccc(-c2cc(NCC3CCOCC3)c3ncc(-c4ccc(C(=O)NC5CC5)cc4)n3n2)cc1 [Example 2-6, 4,4′-(8-((Tetrahydro-2H-pyran-4-yl)methylamino)imidazo[1,2-b]pyridazine-3,6-diyl)bis(N-cyclopropylbenzamide)]
38 | 50 to 500 | 3.4 |  |  | O=C(NC1CC1)c1ccc(-c2cnc3c(NCc4ccoc4)cc(NC4CCCCC4)nn23)cc1 [Example 2-157]
39 | 50 to 500 | 7 |  |  | CCCNc1cc(NC2CCCCC2)nn2c(-c3ccc(C(=O)NC4CC4)cc3)cnc12 [Example 2-141]
40 | 50 to 500 | 10.5 |  |  | CC(C)CCNc1cc(NC2CCCCC2)nn2c(-c3ccc(C(=O)NC4CC4)cc3)cnc12 [Example 2-139]
41 | 50 to 500 | 4.4 |  |  | O=C(NC1CC1)c1ccc(-c2cnc3c(NCc4cccnc4)cc(NC4CCCCC4)nn23)cc1 [Example 2-156]
42 | 50 to 500 | 3.2 |  |  | Cc1cc(CNc2cc(NC3CCCCC3)nn3c(-c4ccc(C(=O)NC5CC5)cc4)cnc23)no1 [Example 2-158]
43 | 50 to 500 | 4.8 |  |  | O=C(NC1CC1)c1ccc(-c2cnc3c(NCC4CCOCC4)cc(NCC4CCCCC4)nn23)cc1 [Example 2-16]
44 | 50 to 500 | 11.9 |  |  | O=C(NC1CC1)c1ccc(-c2cnc3c(NCC4CCOCC4)cc(NCC(F)(F)F)nn23)cc1 [Example 2-30]
45 | ≤ 50 | 6.4 |  |  | O=C(NC1CC1)c1ccc(-c2cnc3c(NCC4CCOCC4)cc(Oc4cccc(F)c4)nn23)cc1 [Example 2-106]
46 | 50 to 500 | 7 |  |  | CCCNc1cc(NCC2CCOCC2)c2ncc(-c3ccc(C(=O)NC4CC4)cc3)n2n1 [Example 2-21]
47 | 50 to 500 | 17.8 |  |  | COCC(C)Nc1cc(NCC2CCOCC2)c2ncc(-c3ccc(C(=O)NC4CC4)cc3)n2n1 (stereo not shown) [Example 2-52]
